# Laboratory results from patent publication US20250295639A1, “METHODS FOR TREATING HEART DISEASES” (Cytokinetics, Incorporated, priority 2024, published 2025).
# How the values were obtained:
# [1] = tested on: patients with nonobstructive hypertrophic cardiomyopathy (nHCM); test: FOREST-HCM open-label extension, 36-week analysis in nHCM; assay type: in vivo, human
# Excerpt: An open-label extension clinical trial of aficamten in patients with symptomatic oHCM was initiated and was described as Example 3b in WO 2024/031016 and in U.S. Patent Publication US-2024-0115554-A1, the disclosures of which are incorporated by reference herein. The treatment duration is anticipated to be multiple years. The primary objective of the trial is to determine the safety and tolerability of aficamten over a 5-year period. Safety and efficacy of aficamten in patients with nonobstructive hypertrophic cardiomyopathy (nHCM). Thirty-four patients were enrolled (mean age±SD 57.2±15.3 years, 62% women). At baseline, patients were symptomatic (41% NYHA class III) with median (IQR) NT-proBNP and hs-cTnI of […] (735, 1735) and 24.9 ng/L (9.7, 46.4), respectively. By the end of the titration period (week 6), 3 (8.8%), 3 (8.8%), 6 (17.6%) and 22 (64.7%) patients received doses of 5, 10, 15, and 20 mg daily, respectively. At baseline, LVEF (mean±SD) was 70%±6.1; over 36-weeks, there was a modest reduction of 4.3%±5.2 (p<0.0001). NYHA class improved by ≥1 class in 27 (79.4%) patients, including 20 (58.8%) were asymptomatic (NYHA class I) by week 36. The mean KCCQ-CSS improved by 13.8±12.52 points relative to baseline, with 24/31 (77.4%) patients reporting improvements of ≥5 points. […] Most patients achieved the highest available dose while maintaining normal LVEF.
# [2] = tested on: patients with symptomatic oHCM; parameters: species or system human; conditions: in vivo
# Description: Patients enrolled in this trial were required to have an LVEF≥60% prior to randomization, as confirmed by the central echocardiography laboratory. […] Dose escalation was performed on an individualized basis only if the following criteria were met: both post-Valsalva LVOT-G≥30 mmHg and biplane LVEF≥55%. Importantly, in contrast to CY 6021, the lower limit of LVEF for dose escalations was increased from 50% to 55% to provide a safety margin from the threshold of LVEF (<50%) that would trigger dose reduction. If the LVEF was <50% at any time, the dose of aficamten was down-titrated, and if the LVEF is <40% at any time, aficamten was temporarily interrupted.
# To evaluate the safety and tolerability profile of aficamten in patients with symptomatic oHCM, the following were recorded: (1) incidence of reported major adverse cardiac events (cardiovascular [CV] death, cardiac arrest, non-fatal stroke, non-fatal myocardial infarction, CV hospitalization); (2) incidence of new onset persistent atrial fibrillation; (3) incidence of appropriate implantable cardiac defibrillator (ICD) discharges and aborted sudden cardiac death; (4) incidence of left ventricular ejection fraction (LVEF)<50%; and (5) incidence of treatment emergent adverse events.
smiles,measurement,setting,value
"CCc1nc(-c2ccc3c(c2)CC[C@H]3NC(=O)c2cnn(C)c2)no1 [aficamten, (R)—N-(5-(5-ethyl-1,2,4-oxadiazol-3-yl)-2,3-dihydro-1H-inden-1-yl)-1-methyl-1H-pyrazole-4-carboxamide]",patients reporting KCCQ-CSS improvements of ≥5 points,[1]; 24/31 patients,77.4%
same,patients asymptomatic (NYHA class I),[1]; by week 36,58.8%
same,drug discontinuations due to adverse events,[1]; in vivo,no drug discontinuations due to adverse events
same,patients with LVEF<50%,[1]; in vivo,5.9%
same,reduction in LVEF (mean±SD),[1]; over 36-weeks,4.3%
same,tolerability,[1]; over the study period,well tolerated
same,NT-proBNP median change from baseline,[1]; week 36,-665.5 pg/mL
same,hs-cTnI median change from baseline,[1]; week 36,-2.7 ng/L
same,mean KCCQ-CSS improvement relative to baseline,[1]; week 36,13.8±12.52 points
same,patients with NYHA class improved by ≥1 class,[1]; week 36,79.4%
same,instances of per protocol down-titration,[2],no instances
